This passage reports AC50 and IC50 results from patent US20250092065A1, “2-(INDAZOL-5-YL)-6-(PIPERIDIN-4-YL)-1,7-NAPHTHYRIDINE DERIVATIVES AND RELATED COMPOUNDS AS MODULATORS FOR SPLICING NUCLEIC ACIDS AND FOR THE TREATMENT OF PROLIFERATIVE DISEASES” (REMIX THERAPEUTICS INC., priority 2022, published 2025).

The structures appear in SMILES notation. Counter-ions that a name gives are not always drawn. Like-named read-outs stand apart in the source and are kept apart here. Where only a bound is given, the exact number is not on record here.

The experiment relates to HTT mRNA. Kind of experiment: RT-qPCR splicing assay, HTT mRNA canonical (CJ) and alternative (AJ) junction. Format: cell-based, human. As to conditions: Homo sapiens. The essentials: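 A673 or K562 cells treated 24 h at 37 °C with 11-point 3-fold dilutions (top final 10 uM, DMSO ≤0.25%). Lysates analysed by one-step RT-qPCR for canonical (CJ) and alternative-exon (AJ) junctions, normalized to GAPDH, GUSB or PPIA. ΔΔCt vs DMSO, RQ = 2^(−ΔΔCt), expressed as percentage response.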

Where [1] appears, read: RT-qPCR, HTT alternative junction mRNA increase, read-out: HTT AJ (increase in alternative junction mRNA, AC50).
[2] abbreviates: RT-qPCR, HTT canonical junction mRNA decrease, read-out: HTT CJ (decrease in canonical junction mRNA, IC50).
The mark [3] stands for this setting: canonical junction qPCR panel, Table 4, read-out: HTT IC50 (decrease in CJ mRNA levels).
Setting [4] is: HTT alternative junction mRNA, RT-qPCR, read-out: HTT AJ (increase in AJ mRNA, AC50).
[5] abbreviates: HTT canonical junction mRNA, RT-qPCR, read-out: HTT CJ (decrease in CJ mRNA levels, IC50).

By AC50 is commonly meant the midpoint of the concentration-response curve, whichever way the signal moves. For orientation: IC50 means the concentration that gives 50% inhibition. `C[C@H]1CN(c2cc(F)c3nc(-c4cc(F)c5nn(C)cc5c4)ccc3c2)C[C@H](C)N1` (single isomer, unassigned) [Compound 760]: the AC50 under setting [1] was in the range of 0.1 to 1 µM. For the same compound, the IC50 under setting [2] is less than 0.1 µM and the IC50 under setting [3] is less than 0.1 µM.

For `C[C@H]1CN(c2cc(F)c3nc(-c4cc5cn(C)nc5cc4O)ccc3c2)C[C@H](C)N1` (single isomer, unassigned) [Compound 770], the AC50 under setting [1] was in the range of 0.1 to 1 µM. In addition, the IC50 was 0.1 to 1 µM under setting [2] and 0.1 to 1 µM under setting [3].

For `Cc1cn2nc(-c3ccc4cc(N5C[C@H](C)N[C@@H](C)C5)cc(F)c4n3)cc(C)c2n1` (single isomer, unassigned) [Compound 799], under setting [1], the AC50 is 0.1 to 1 µM. Besides, the half-inhibitory concentration (IC50) reads like this: under setting [2], 0.1 to 1 µM; under setting [3], 0.1 to 1 µM.

For `Cc1c(O)c(-c2ccc3cc(N4C[C@H](C)N[C@@H](C)C4)cc(F)c3n2)cc2cn(C)nc12` (single isomer, unassigned) [Compound 800, 2,2,2-trifluoroacetate], under setting [1], the AC50 is less than 0.1 µM. Besides, the IC50 runs as follows: under setting [2], less than 0.1 µM; under setting [3], less than 0.1 µM.

For the compound `Cc1nc(-c2cc3cn(C)nc3cc2O)nc2ccc(N3C[C@H](C)N[C@@H](C)C3)cc12` (single isomer, unassigned) [Compound 806], the AC50 under setting [1] was in the range of 1 to 10 µM. For the same compound, the IC50 was greater than 10 µM under setting [2] and greater than 10 µM under setting [3].

`Cc1nc(-c2cc3cn(C)nc3c(C)c2O)nc2ccc(N3C[C@H](C)N[C@@H](C)C3)cc12` (single isomer, unassigned) [Compound 807]: the AC50 under setting [1] is 1 to 10 µM. In addition, the IC50 was greater than 10 µM under setting [2] and greater than 10 µM under setting [3].

Regarding `Cn1cc2cc(-c3cc4ccc(C5CCNCC5)nc4cn3)c(O)cc2n1` [Compound 104], the AC50 under setting [4] lay within 1 to 10 µM. Moreover, the IC50 under setting [5] was in the range of 1 to 10 µM and the IC50 under setting [3] fell in the range of 1 to 10 µM.

Regarding `Cn1cc2cc(-c3ccc4nc(N5CC[C@H](NC6CCC6)C5)ccc4n3)c(O)cc2n1` [Compound 156], the AC50 under setting [4] is less than 0.1 µM. Besides, the IC50 reads like this: under setting [5], less than 0.1 µM; under setting [3], less than 0.1 µM.

Regarding `CC(C)N[C@H]1CCN(c2ccc3nc(-c4cc5cn(C)nc5cc4O)ccc3n2)C1` [Compound 171], the AC50 under setting [4] was less than 0.1 µM. Further, the IC50 by setting is: under setting [5], less than 0.1 µM; under setting [3], less than 0.1 µM.

In the case of `Cc1cn2nc(-c3ccc4nc(N5CCC(NC(C)(C)C)C5)ccc4n3)cc(C)c2n1` (stereo not drawn) [Compound 186], the AC50 under setting [4] is less than 0.1 µM. In addition, the IC50 reads like this: under setting [5], less than 0.1 µM; under setting [3], less than 0.1 µM.

As to `Cn1cc2cc(-c3ccc4nc(N5CC[C@H](NCC6CC6)C5)ccc4n3)c(O)cc2n1` [Compound 194], under setting [4], the AC50 was less than 0.1 µM. Also, the IC50 runs as follows: under setting [5], less than 0.1 µM; under setting [3], less than 0.1 µM.

Consider `CN(C)C1CCN(c2ccc3nc(-c4cc5cn(C)nc5c(F)c4O)ncc3c2)CC1` [Compound 757, 5-{6-[4-(dimethylamino)piperidin-1-yl]quinazolin-2-yl}-7-fluoro-2-methylindazol-6-ol], for which, under setting [1], the AC50 was 1 to 10 µM. Moreover, the IC50 was in the range of 1 to 10 µM under setting [2] and 1 to 10 µM under setting [3].

For the compound `C[C@@H]1CN(c2cc(F)c3nc(-c4cc(F)c5nn(C)cc5c4)ccc3c2)C[C@H](C)N1` [Compound 758, 6-[(3R,5S)-3,5-dimethylpiperazin-1-yl]-8-fluoro-2-(7-fluoro-2-methylindazol-5-yl)quinoline], the AC50 under setting [1] lay within 1 to 10 µM. In addition, the IC50 by setting is: under setting [2], 0.1 to 1 µM; under setting [3], 0.1 to 1 µM.

Consider `C[C@@H]1CN(c2cc(F)c3nc(-c4cc5cn(C)nc5c(F)c4O)ccc3c2)C[C@H](C)N1` [Compound 763, 5-{6-[(3R,5S)-3,5-dimethylpiperazin-1-yl]-8-fluoroquinolin-2-yl}-7-fluoro-2-methylindazol-6-ol hydrochloride], for which the AC50 under setting [1] lay in the range of 0.1 to 1 µM. The IC50 under setting [2] is less than 0.1 µM and the IC50 under setting [3] is less than 0.1 µM.

Consider `C[C@@H]1CN(c2cc(F)c3nc(-c4cc5cn(C)nc5cc4O)ccc3c2)C[C@H](C)N1` [Compound 768, 5-{6-[(3R,5S)-3,5-dimethylpiperazin-1-yl]-8-fluoroquinolin-2-yl}-2-methylindazol-6-ol hydrochloride], for which the AC50 under setting [1] fell in the range of 1 to 10 µM. The IC50 by setting is: under setting [2], 1 to 10 µM; under setting [3], 1 to 10 µM.

As to `Cc1cn2cc(-c3ncc4cc(N5C[C@@H](C)N[C@@H](C)C5)ccc4n3)cc(F)c2n1` [Compound 773, 6-[(3R,5S)-3,5-dimethylpiperazin-1-yl]-2-{8-fluoro-2-methylimidazo[1,2-a]pyridin-6-yl}quinazoline], under setting [1], the AC50 was in the range of 1 to 10 µM. For the same compound, the IC50 was 1 to 10 µM under setting [2] and 1 to 10 µM under setting [3].

As for `Cc1cn2cc(-c3nc(C(=O)NC4CCC4)c4cc(N5C[C@@H](C)N[C@@H](C)C5)ccc4n3)cc(F)c2n1` [Compound 779, N-cyclobutyl-6-[(3R,5S)-3,5-dimethylpiperazin-1-yl]-2-{8-fluoro-2-methylimidazo[1,2-a]pyridin-6-yl}quinazoline-4-carboxamide], the AC50 under setting [1] lay within 1 to 10 µM. The IC50 was 1 to 10 µM under setting [2] and 1 to 10 µM under setting [3].

As to `Cc1c(O)c(-c2nc(C(N)=O)c3cc(N4C[C@H](C)N[C@@H](C)C4)ccc3n2)cc2cn(C)nc12` [Compound 796], under setting [1], the AC50 lay in the range of 0.1 to 1 µM. Further, the IC50 is, setting by setting: under setting [2], 0.1 to 1 µM; under setting [3], 0.1 to 1 µM.

Turning to `C[C@H]1CN(c2ccc3nc(-c4cc5cn(C)nc5cc4O)nc(C(N)=O)c3c2)C[C@H](C)N1` [Compound 797], under setting [1], the AC50 was in the range of 0.1 to 1 µM. Also, the IC50 lay in the range of 1 to 10 µM under setting [2] and 1 to 10 µM under setting [3].

As to `Cc1cn2cc(-c3ncc4cc(N5C[C@H](C)N[C@@H](C)C5)ccc4n3)cc(F)c2n1` [Compound 803, 6-[(3S,5S)-3,5-dimethylpiperazin-1-yl]-2-{8-fluoro-2-methylimidazo[1,2-a]pyridin-6-yl}quinazoline], the AC50 under setting [1] lay within 0.1 to 1 µM. The IC50 by setting is: under setting [2], 0.1 to 1 µM; under setting [3], 0.1 to 1 µM.

For the compound `Cc1c(O)c(-c2ccc3cc(N4CCNC5(CC5)C4)cc(F)c3n2)cc2cn(C)nc12` [Compound 805, 5-(6-{4,7-diazaspiro[2.5]octan-7-yl}-8-fluoroquinolin-2-yl)-2,7-dimethylindazol-6-ol], under setting [1], the AC50 is 0.1 to 1 µM. Further, the IC50 by setting is: under setting [2], less than 0.1 µM; under setting [3], less than 0.1 µM.
